Article PMC5090206, “Fluselenamyl: A Novel Benzoselenazole Derivative for PET Detection of Amyloid Plaques (Aβ) in Alzheimer’s Disease” (Scientific Reports, 2016)

Target: Aβ plaques (Homo sapiens, UniProt P05067)
Test: Ex vivo autoradiography of APP/PS1 Tg and WT mouse brain sections
Format: in vivo
Details: for target/reference count intensity ratio (mean ± SD): 30 min post injection, cortex and amygdala vs hypothalamus; for target/reference count intensity ratio: brain stem as reference region
Procedure: Uptake in brain and other critical organs was analyzed in terms of percent injected dose per gram of the tissue (%ID/g) SI Table 1. For in vivo imaging of Aβ plaques, the basic pharmacokinetic model in normal brains involves a high initial penetration of the agent, accompanied by facile clearance due to lack of a binding target. […] For comparison, brain uptake ratios of [^18F]-AV-45 (2 min/2 h) and [^18F]-Florbetaben (2 min/4 h) in normal mice are 4.07 (%ID/g (brain): 2 min: 7.33 ± 1.54; 2 h: 1.80 ± 0.07; 7.33/1.80; 4.07)[10] and 5.0 (%ID/g (brain): 2 min: 4.77; 4 h: 0.95; 4.77/0.95; 5.02)[46], respectively. […] For an agent to be able to serve as an Aβ-imaging agent, literature precedents indicate that brain uptake ratio (%ID/g; the earliest time–point; 2–5 min to that of the latest time point; typically for carbon-11; 30–60 min; and F-18, 2 h) of 3.5 or above could be considered as a benchmark for ability of a given agent to cross the blood-brain barrier. Additionally, the brain uptake of a given imaging agent is also a net function of several components, such as cerebral regional blood flow, BBB permeability, plasma radiotracer concentration, and free fractions of the radiotracer in plasma and in the brain. Furthermore, the lipophilicity of a given compound also reflects a critical physicochemical trait for neuroimaging radiotracers due to its direct relationship to membrane permeability, solubility in water, and entropic contribution to binding. Literature precedents indicate that lipophilic drugs readily cross the BBB, although other chemical characteristics, including the number of hydrogen bonds, molecular weight, polar surface area and molecular size are also known to be critical traits for passive transport. […] Conversely, radiotracers that are too lipophilic can also bind plasma proteins, undergo fast metabolism, while also contributing to high nonspecific binding, such as white matter. […] For ROI analysis of the PET signal in brain section autoradiograms of transgenic mouse (Fig. 7A) and its WT counterpart (Fig. 7D), we used measured count densities in cortex and amygdala target regions and compared them with that of hypothalamus as reference region with a low plaque density as determined by Aβ immunostaining (Fig. 7B). […] Since brain stem was also devoid of plaques, we also analyzed the above target regions using brain stem as a reference region, and observed target/reference value in the transgenic to be 0.89 ± 0.1 compared to 0.45 ± 0.07 in the WT mouse. […]

Sequence of Aβ plaques (P05067 672-711 limits assumed): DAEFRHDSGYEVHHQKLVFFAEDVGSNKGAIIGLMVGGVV

For `CN(C)c1ncc(/C=C\c2nc3cc(OCC[18F])ccc3[se]2)cn1` [[^18F]-9], the “target/reference count intensity ratio (mean ± SD)” value (24 months APP/PS1 transgenic mouse) was 1.88 ± 0.22, the “target/reference count intensity ratio” value (APP/PS1 transgenic mouse) was 0.89 ± 0.1 and the “target/reference count intensity ratio (mean ± SD)” value (WT control mouse) was 0.96 ± 0.12. For the same compound, the “target/reference count intensity ratio” value (WT mouse) was 0.45 ± 0.07.
